Experimental data taken from patent USRE42072E1, “Compositions and methods for enhancing receptor-mediated cellular internalization” (The Penn State Research Foundation, priority 1996, dated 2011).

Tests used:
in vivo = format: in vivo, sheep; conditions: female, sheep, in vivo, 40 ug, bioavailability
Method: (§1) FIG. 3 is a graph showing the percent of responding animals to LHRH analog vaginal delivery as a function of (simulated) stage of the estrous cycle. Stage of estrous cycle was simulated by delivering estradiol for two weeks to ovariectomized ewes (anestrus phase), followed by two weeks of delivery of estradiol and progesterone (mid-luteal phase), followed by a period of 48 h after progesterone withdrawal (follicular phase). In each simulated phase, 10, 40, or […] of LHRH analog were delivered vaginally in 5 ml of aqueous or methocel solution to groups of six ewes. Responding animals were defined as those treated animals with LH serum values exceeding 3 ng/ml for two or more sampling points, with sampling times of 0, 30, 60, […], 120, 180, 240, 360, and 480 min.
(§2) FIG. 4 is a graph showing serum LH response to vaginal administration of LHRH analog. LHRH analog-was administered vaginally in ovariectomized ewes during the simulated mid-luteal phase in 5 ml of aqueous or methocel (1.75% methyl cellulose) solution (40 μg dose). Standard errors are based on n=6.
(§3) It was therefore hypothesized that the responsiveness of animals to LHRH analog vaginal delivery varied with steroid-dependent hormone receptor expression (estrous cycle). To test this hypothesis, a group of ewes was ovariectomized and administered estradiol and progesterone to mimic the animals' estrous cycle. Ewes were pre-medicated with atropine (0.02 mg/lb) and Telazol (R) (2 mg/lb) intramuscularly. After induction of recumbency, thipental (5% in water) was administered intravenously to induce sufficient anesthesia to permit endotracheal intubation. Anesthesia was maintained using halothane in oxygen at 1-2 liters per minute. Ovaries were removed through a mid-line incision.
(§4) Within 24 h of surgery, a 1.5 cm silicone implant of estradiol (Compudose 200, Elanco, Ind.) was inserted into the left ear to provide a basal level of estradiol. The anestrus state was simulated after two weeks of estradiol delivery following surgery. Experiments were performed in the simulated anestrus state (i.e. two weeks after surgery) as described above. Immediately following the last blood sample, a progesterone-releasing intravaginal device (CIDR-G, Carter Hold Harvey Plastic Products, Hamilton, New Zealand) was inserted.
(§5) In a parallel study, an alternative progesterone-releasing device (Snychro-Mate-B, Sanofi Animal Health, Overland Park, Kans.) was placed in the left ear. The mid-luteal phase was simulated after permitting a 10 day intravaginal or ear progesterone treatment. Experiments were performed in the simulated mid-luteal phase as described above.
(§6) The progesterone-releasing (vaginal or ear) implant was removed and the follicular phase was simulated by allowing a time lapse of 48 h. Experiments were performed in the follicular phase as described above.
(§7) Next, 200 μg of leuprolide acetate in 5 ml of aqueous solutions was vaginally administered during simulated anestrus (estradiol only), mid-luteal (estradiol and progesterone), and follicular (48 h after progesterone withdrawal) phases, as described above. […] In contrast, 100% of animals responded when treated with progesterone and estradiol (FIG. 3).

luteinizing hormone (LH) [1] = test: in vivo; format: in vivo, sheep; conditions: for animals responded: vaginal 200 μg; for LH response: vaginal, progesterone and estradiol treatment
Method: as §1, §2, §3, §4, §5, §6, §7

[2] = Bioavailability of peptides after vaginal administration to sheep, relative to intravenous injection; conditions: in vivo
Method: (§8) First, a peptide that undergoes receptor-mediated transport across the vaginal epithelium was identified by studying the permeation of peptides of varying molecular weight in a sheep model. Peptides were delivered vaginally to sheep in 5 ml of aqueous or methocel solutions with typical peptide concentrations of 10-40 μg/ml. A group of 18 intact ewes were utilized for these experiments. For each study, sheep were randomly assigned to a treatment group. In GnRH studies where each animal received all possible treatment combinations, each animal was assigned to an initial treatment group at random and subsequently randomly to each of the remaining treatment groups. A minimum of 5 days (typically 10 or more days) was allowed between experiments on a given animal, to provide sufficient time for complete recovery of pituitary responsiveness to the highest doses of the GnRH agonist used A 16G 150 mm jugular catheter (Abbocath-T, Abbott Laboratories, Chicago, Ill.) was inserted and blood samples collected at 0, 30, 60, 90, 120, 180, 240, 360, 480 and 1440 min. after treatment. Luteinizing hormone (LH) levels were determined.
(§9) LHRH analog was placed in methyl cellulose solutions (“methocels”) of varying apparent viscosity. […] First, 200 μg of leuprolide acetate in 5 ml of aqueous solutions with melhocel weight concentrations varying between 0% and 3.0% were vaginally administered.
The enhanced bioavailability of LHRH also coincides with a longer-term release into the systemic circulation at the optimal methocel concentrations. […] To test this hypothesis, the efficacy of a second, physically cross-linked hydrogel that was believed would not enhance endocytosis, but whose apparent viscosity (in the range of hydrogel concentrations 0.0-5.5%) was similar to that of the methocels (in the range 0.0-3.0%) was examined.

luteinizing hormone (LH) [3] = test: Serum LH response to iv injection and vaginal administration of LHRH analog in intact ewes; format: in vivo, sheep
Method: FIGS. 1a and 1b are graphs showing serum responses to iv injection and vacinal administration of vasopressin and leuprolide acetate. […] Vasopressin was injected intravenously ([…]) through a jugular catheter. The peptide was delivered vaginally in 5 ml of aqueous solution (200 g does). Standard errors are based on n=6. […] LHRH analog was injected intravenously ([…]) into through a jugular catheter. The peptide was delivered vaginally in 5 ml of aqueous solution (200 g dose). Standard errors are based on n=6.
FIG. 2 is a graph showing bioavailability of LHRH analog following vaginal administration as a function of methyl cellulose (“methocel”) concentration. Bioavailability is determined relative to intravenous injection (FIG. 1b) and is based on LH response. The administered dose of LHRH analog was 200 g in 5 ml of methocel solution. Results are based on animals that responded to vaginal treatment, with standard error computed on the basis of n≧4 In all cases, less than 50% of treated animals responded with LH levels greater than 3 ng/ml for more than one sampling point, with sampling times of 0, 30, 60, 90, 120, 180, 240, 360, and 480 min.
as §8, §9

bioavailability (in vivo): 6%
bioavailability (luteinizing hormone (LH) [1]; female, sheep, in vivo, 40 ug): 10%
bioavailability ([2]; female, sheep): 2.6 ± 0.9%
Compound: CCNC(=O)[C@@H]1CCCN1C(=O)[C@H](CCCNC(=N)N)NC(=O)[C@H](CC(C)C)NC(=O)[C@@H](CC(C)C)NC(=O)[C@H](Cc1ccc(O)cc1)NC(=O)[C@H](CO)NC(=O)[C@H](Cc1c[nH]c2ccccc12)NC(=O)[C@H](Cc1c[nH]cn1)NC(=O)[C@@H]1CCC(=O)N1 [leuprolide acetate]
animals responded (luteinizing hormone (LH) [1]; treated with progesterone and estradiol (FIG. 3)): 100%
animals responded (luteinizing hormone (LH) [1]; with or without 1.75% methocel, estrogen replacement without progesterone): less than 50%
LH response (luteinizing hormone (LH) [1]; highest dose, with and without methocel): saturated
LH response (luteinizing hormone (LH) [1]; lowest dose (10 μg)): undetectable
duration of delivery as a function of control gel concentration [2]: diminished with increasing control gel concentration
bioavailability as a function of control hydrogel concentration ([2]; sheep): diminished with increasing concentration of the hydrogel
bioavailability as a function of methocel concentration ([2]; sheep, 200 ug): increase as methocel concentration increased to 1.75%, then to fall at higher methocel concentration
luteinizing hormone (LH) response (luteinizing hormone (LH) [3]; intravenous injection (FIG. 1b)): significant
luteinizing hormone (LH) response (luteinizing hormone (LH) [3]; vaginal administration, aqueous solution (FIG. 1b)): significant
animals showing little or no response (luteinizing hormone (LH) [3]; vaginal administration, intact ewes, bimodal distribution): approximately 30%
treated animals that responded with LH levels greater than 3 ng/ml for more than one sampling point (luteinizing hormone (LH) [3]; vaginal, 5 ml methocel solution, intact ewes, all methocel concentrations (FIG. 2)): less than 50%
